Measurements taken from article PMC7662900, “Development of a Bestatin-SAHA Hybrid with Dual Inhibitory Activity against APN and HDAC” (Molecules, 2020).
“Also recorded” adds a separate entry of the source. Like-named read-outs stand apart in the source and are kept apart here.

Experiments:
HDAC1 = molecular target: T1, HDAC1 (Homo sapiens, UniProt Q13547); assay: In vitro HDACs inhibitory assay (fluorogenic substrate), HDAC1; assay type: biochemical
T1 construct: purchased BPS Bioscience
Protocol: (§1) All the HDAC enzymes were brought from BPS Bioscience. Ten μL of enzyme solution (HDAC1, HDAC6 or HDAC8) was mixed with different concentrations of tested compound (50 μL). The mixture was incubated at 37 °C for 5 min, followed by adding 40 μL fluorogenic substrate (Boc-Lys(acetyl)-AMC for HDAC1 and HDAC6, Boc-Lys(triflouroacetyl)-AMC for HDAC8). After incubation at 37 °C for 30 min, the mixture was quenched by addition of 100 μL of developer containing trypsin and Trichostatin A. Over another incubation at 37 °C for 20 min, fluorescence intensity was measured using a microplate reader at excitation and emission wavelengths of 390 nm and 460 nm, respectively. The inhibition rates were calculated from the fluorescence intensity readout of tested wells relative to those of control wells, and the IC50 values were calculated using Prism non-linear curve fitting method.

HDAC6 = molecular target: T2, HDAC6 (Homo sapiens, UniProt Q9UBN7); assay: In vitro HDACs inhibitory assay (fluorogenic substrate), HDAC6; assay type: biochemical
T2 construct: purchased BPS Bioscience
T2 sequence (Q9UBN7 1-1215): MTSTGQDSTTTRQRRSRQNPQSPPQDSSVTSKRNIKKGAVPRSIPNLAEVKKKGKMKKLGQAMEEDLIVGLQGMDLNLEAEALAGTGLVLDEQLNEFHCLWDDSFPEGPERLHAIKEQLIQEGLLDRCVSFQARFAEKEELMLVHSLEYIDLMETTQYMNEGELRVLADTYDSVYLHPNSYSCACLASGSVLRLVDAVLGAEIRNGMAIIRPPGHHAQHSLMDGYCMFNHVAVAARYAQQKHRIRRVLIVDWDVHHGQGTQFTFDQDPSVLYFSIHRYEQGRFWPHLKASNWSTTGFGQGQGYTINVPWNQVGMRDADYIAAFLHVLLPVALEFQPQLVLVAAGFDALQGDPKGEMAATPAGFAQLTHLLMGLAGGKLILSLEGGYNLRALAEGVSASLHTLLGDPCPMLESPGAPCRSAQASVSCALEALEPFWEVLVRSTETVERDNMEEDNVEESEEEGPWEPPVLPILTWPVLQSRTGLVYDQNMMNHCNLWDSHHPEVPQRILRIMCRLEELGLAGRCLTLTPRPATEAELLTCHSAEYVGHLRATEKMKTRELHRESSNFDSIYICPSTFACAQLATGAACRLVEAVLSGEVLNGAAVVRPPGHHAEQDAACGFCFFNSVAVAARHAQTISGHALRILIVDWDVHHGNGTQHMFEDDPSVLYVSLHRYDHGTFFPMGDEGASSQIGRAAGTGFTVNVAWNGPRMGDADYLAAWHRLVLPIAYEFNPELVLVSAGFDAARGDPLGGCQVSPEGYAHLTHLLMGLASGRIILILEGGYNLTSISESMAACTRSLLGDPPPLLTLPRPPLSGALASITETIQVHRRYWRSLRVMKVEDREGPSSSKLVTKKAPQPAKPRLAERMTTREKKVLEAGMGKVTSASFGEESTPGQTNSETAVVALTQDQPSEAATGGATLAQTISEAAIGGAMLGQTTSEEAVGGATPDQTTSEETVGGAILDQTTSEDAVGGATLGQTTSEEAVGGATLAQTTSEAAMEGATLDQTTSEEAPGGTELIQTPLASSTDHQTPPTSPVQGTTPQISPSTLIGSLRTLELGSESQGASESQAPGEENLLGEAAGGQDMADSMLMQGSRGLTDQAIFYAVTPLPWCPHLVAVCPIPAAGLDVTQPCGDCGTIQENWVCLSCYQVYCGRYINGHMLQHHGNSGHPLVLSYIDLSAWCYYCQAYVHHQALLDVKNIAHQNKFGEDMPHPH
Protocol: as §1

HDAC8 = molecular target: T3, HDAC8 (Homo sapiens, UniProt Q9BY41); assay: In vitro HDACs inhibitory assay (fluorogenic substrate), HDAC8; assay type: biochemical
T3 construct: purchased BPS Bioscience
T3 sequence (Q9BY41 1-377): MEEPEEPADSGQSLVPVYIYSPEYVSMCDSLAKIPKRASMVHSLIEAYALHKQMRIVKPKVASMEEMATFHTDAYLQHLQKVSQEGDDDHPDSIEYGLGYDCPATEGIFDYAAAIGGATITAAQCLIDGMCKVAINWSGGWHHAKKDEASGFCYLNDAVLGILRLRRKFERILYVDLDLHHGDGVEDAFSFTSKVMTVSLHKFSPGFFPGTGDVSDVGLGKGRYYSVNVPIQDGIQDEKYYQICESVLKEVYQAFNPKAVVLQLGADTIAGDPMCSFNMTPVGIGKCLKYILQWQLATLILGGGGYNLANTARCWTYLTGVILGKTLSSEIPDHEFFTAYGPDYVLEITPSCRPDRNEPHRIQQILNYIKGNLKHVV
Protocol: as §1

[1] = molecular target: T4, microsomal APN from porcine kidney microsomes (Sus scrofa, UniProt P15145); assay: In vitro APN inhibitory assay (l-leu-p-nitroanilide substrate); assay type: biochemical; conditions: mean ± SD, n ≥ 3
T4 construct: microsomal APN from porcine kidney microsomes (Biocol); purchased Biocol; host or cells: porcine kidney microsomes (tissue-derived)
T4 sequence (P15145 1-963): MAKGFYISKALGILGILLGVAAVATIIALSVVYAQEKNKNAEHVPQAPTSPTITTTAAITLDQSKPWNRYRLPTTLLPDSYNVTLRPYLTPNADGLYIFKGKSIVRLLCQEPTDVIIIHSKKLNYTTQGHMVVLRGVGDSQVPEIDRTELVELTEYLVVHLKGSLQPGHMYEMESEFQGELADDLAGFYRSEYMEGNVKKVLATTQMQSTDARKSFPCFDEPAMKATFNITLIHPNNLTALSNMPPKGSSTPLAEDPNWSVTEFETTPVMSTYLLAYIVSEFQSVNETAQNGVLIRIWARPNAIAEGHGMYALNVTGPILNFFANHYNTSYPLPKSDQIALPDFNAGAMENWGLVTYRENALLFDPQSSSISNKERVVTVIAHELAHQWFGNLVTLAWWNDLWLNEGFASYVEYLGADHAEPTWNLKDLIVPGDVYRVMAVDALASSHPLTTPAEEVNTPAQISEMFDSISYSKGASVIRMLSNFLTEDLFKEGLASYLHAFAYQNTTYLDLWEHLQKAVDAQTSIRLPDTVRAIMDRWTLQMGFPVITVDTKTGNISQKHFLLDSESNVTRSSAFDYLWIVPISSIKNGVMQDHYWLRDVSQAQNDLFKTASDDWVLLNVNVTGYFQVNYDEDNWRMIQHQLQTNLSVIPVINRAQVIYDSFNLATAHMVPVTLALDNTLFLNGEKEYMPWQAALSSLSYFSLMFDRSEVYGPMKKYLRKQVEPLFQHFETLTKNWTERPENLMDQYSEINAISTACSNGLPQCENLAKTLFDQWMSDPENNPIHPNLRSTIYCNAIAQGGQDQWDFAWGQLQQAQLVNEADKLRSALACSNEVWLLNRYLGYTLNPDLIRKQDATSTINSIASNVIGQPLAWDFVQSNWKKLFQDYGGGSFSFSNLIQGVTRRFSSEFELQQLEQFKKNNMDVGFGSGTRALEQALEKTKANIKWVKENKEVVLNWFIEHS
Protocol: The inhibitory activities of target compounds against APN were determined using l-leu-p-nitroanilide as substrate and microsomal APN from porcine kidney microsomes (Biocol) in 50 mM PBS, pH 7.2 as enzyme. Briefly, inhibitors (40 μL), PBS (145 μL), substrate (5 μL) and APN solution (10 μL) were added into 96-well plates. The mixture was incubated at 37 °C for 30 min. […] The inhibition rates were calculated based on the ultraviolet absorption readout of tested wells relative to those of control wells, and the IC50 values were calculated using Prism non-linear curve fitting method.

RPMI-8226 cells = assay: Western blot analysis of protein levels in RPMI-8226 cells; assay type: cell-based, human; conditions: for HDAC1, HDAC6 and HDAC8 protein levels (western blot) / HDAC decreasing effect under cotreatment with proteasome inhibitor bortezomib: 24 h treatment; for acetyl-histone H3 and acetyl-α-tubulin levels (intracellular target engagement) / HDAC1 and HDAC6 protein levels (western blot): 6 h treatment; for HDAC decreasing effect under cotreatment with proteasome inhibitor bortezomib: pre-incubated with 10 nM bortezomib
Protocol: The RPMI-8226 cells were plated in flat-bottom six-well plates and allowed to grow for 12 h, and then treated with compounds or DMSO for a specific time period. Then, the cells were washed twice with cold PBS and lysed in ice-cold RIPA buffer, which comprised 50 mM Tris Base, 150 mM NaCl, 5 mM EDTA, 0.1% (v/v) SDS, 0.5% (v/v) sodium deoxycholate and 1% (v/v) Triton-x-100. Lysates were cleared by centrifugation. Protein concentrations were determined using the BCA assay. Equal amounts of cell extracts were then resolved by SDS-PAGE, transferred to nitrocellulose membrane and probed with HDAC1 antibody, HDAC6 antibody, HDAC8 antibody, acetyl-histone H3 antibody, acetyl-α-tubulin antibody and β-actin antibody, respectively. The membrane was washed twice with TBST buffer before being incubated with secondary antibodies. Images were acquired using a GE ImageQuant LAS 4000.

rat thoracic aorta rings = assay: Ex vivo rat thoracic aorta rings (TARs) assay; assay type: cell-based; conditions: for anti-angiogenesis activity (microvessel outgrowth) at 5 μM: compared with bestatin at same concentration; for microvessel outgrowth from thoracic aorta ring: indicated concentrations, treated each day for 5 days
Protocol: Matrigel (100 μL; BD biosciences, NJ) was added into test well of 96-well plates and then allowed to polymerize for 0.5 h at 37 °C. Sprague–Dawley rats that were 4 to 6 weeks old were sacrificed and aortas were harvested. Each aorta was cut into 1 mm slices and embedded in additional 100 μL of Matrigel in 96-well plates. After that, the rings were incubated for 30 min at 37 °C and 5% CO2. Aorta rings were treated with the vehicle (0.5% DMSO) or compounds each day for 5 days and photographed on the sixth day at ×200 magnification. All experiments involving laboratory animals were performed with the approval by the institutional guidelines of Animal Care and Use Committee at Shandong University.

[2] = read-out: Inhibitory Rates at 10 μM, HDAC1
[3] = read-out: Inhibitory Rates at 10 μM, HDAC6
[4] = read-out: Inhibitory Rates at 10 μM, HDAC8

T1 sequence (Q13547 whole entry): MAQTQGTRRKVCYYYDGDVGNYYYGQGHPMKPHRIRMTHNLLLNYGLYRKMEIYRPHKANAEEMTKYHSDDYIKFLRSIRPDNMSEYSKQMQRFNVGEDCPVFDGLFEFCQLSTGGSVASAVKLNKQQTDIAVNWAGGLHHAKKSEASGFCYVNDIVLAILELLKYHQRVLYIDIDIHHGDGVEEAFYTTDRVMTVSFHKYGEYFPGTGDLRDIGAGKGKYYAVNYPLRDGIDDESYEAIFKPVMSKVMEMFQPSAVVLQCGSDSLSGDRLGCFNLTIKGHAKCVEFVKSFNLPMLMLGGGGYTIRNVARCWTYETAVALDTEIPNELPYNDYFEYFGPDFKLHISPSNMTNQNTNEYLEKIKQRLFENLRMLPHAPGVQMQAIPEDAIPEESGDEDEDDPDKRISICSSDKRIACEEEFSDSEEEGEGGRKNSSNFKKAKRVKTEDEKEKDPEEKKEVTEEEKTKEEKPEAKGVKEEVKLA

SMILES: CC(C)C[C@H](NC(=O)[C@@H](O)[C@H](N)Cc1ccccc1)C(=O)NCCCCCC(=O)Nc1ccc(NC(=O)CCCCCCC(=O)NO)cc1.O=C(O)C(F)(F)F [P1, N^1-(4-(6-((S)-2-((2S,3R)-3-Amino-2-hydroxy-4-phenylbutanamido)-4-methylpentanamido)hexanamido)phenyl)-N^8-hydroxyoctanediamide trifluoroacetate]
- IC50 (HDAC1; mean ± SD, n ≥ 3): 30 nM
- inhibition at 10 µM (HDAC1; read-out: Inhibitory Rates at 10 μM, HDAC1, 10 μM): > 90%
- IC50 (HDAC6; mean ± SD, n ≥ 3): 11.5 nM
- inhibition at 10 µM (HDAC6; read-out: Inhibitory Rates at 10 μM, HDAC6, 10 μM): > 90%
- IC50 (HDAC8; mean ± SD, n ≥ 3): 694 nM
- inhibition at 10 µM (HDAC8; read-out: Inhibitory Rates at 10 μM, HDAC8, 10 μM): > 90%
- IC50 [1]: 3430 ± 140 nM
- HDAC1, HDAC6 and HDAC8 protein levels (western blot) (RPMI-8226 cells; 1 μM to 4 μM): significantly decrease the levels of HDAC1, HDAC6 and even HDAC8 in a dose-dependent manner
- acetyl-histone H3 and acetyl-α-tubulin levels (intracellular target engagement) (RPMI-8226 cells): increased levels of acetyl-histone H3 (the HDAC1 substrate) and acetyl-α-tubulin (the HDAC6 substrate)
- HDAC decreasing effect under cotreatment with proteasome inhibitor bortezomib (RPMI-8226 cells): could not reverse
- HDAC1 and HDAC6 protein levels (western blot) (RPMI-8226 cells; up to 20 μM): did not lead to HDAC1 or HDAC6 depletion
- anti-angiogenesis activity (microvessel outgrowth) at 5 μM (rat thoracic aorta rings): superior anti-angiogenesis activities relative to bestatin
- microvessel outgrowth from thoracic aorta ring (rat thoracic aorta rings): effectively inhibited the microvessel outgrowth in a dose-dependent manner

SMILES: CC(C)C[C@H](NC(=O)[C@@H](O)[C@H](N)Cc1ccccc1)C(=O)NCCOCCOCCNC(=O)c1cccc(C(=O)NO)c1.O=C(O)C(F)(F)F [P2, N^1-((11S,14S,15R)-15-Amino-14-hydroxy-11-isobutyl-10,13-dioxo-16-phenyl-3,6-dioxa-9,12-diazahexadecyl)-N^3-hydroxyisophthalamide trifluoroacetate]
- inhibition at 10 µM (HDAC1; [2]): 66%
- inhibition at 10 µM (HDAC6; [3]): 76%
- inhibition at 10 µM (HDAC8; [4]): 64%
- IC50 [1]: 1670 ± 30 nM
- anti-angiogenesis activity (microvessel outgrowth) at 5 μM (rat thoracic aorta rings): superior anti-angiogenesis activities relative to bestatin; also recorded: almost completely inhibit the microvessel outgrowth
- microvessel outgrowth from thoracic aorta ring (rat thoracic aorta rings): effectively inhibited the microvessel outgrowth in a dose-dependent manner

SMILES: CC(C)C[C@H](NC(=O)[C@@H](O)[C@H](N)Cc1ccccc1)C(=O)NCCOCCOCC(=O)Nc1cccc(C(=O)NO)c1 [P3, 3-((11S,14S,15R)-15-Amino-14-hydroxy-11-isobutyl-10,13-dioxo-16-phenyl-3,6-dioxa-9,12-diazahexadecanamido)-N-hydroxybenzamide]
- inhibition at 10 µM (HDAC1; [2]): 67%
- inhibition at 10 µM (HDAC6; [3]): 71%
- inhibition at 10 µM (HDAC8; [4]): 51%
- IC50 [1]: 2650 ± 160 nM
- anti-angiogenesis activity (microvessel outgrowth) at 5 μM (rat thoracic aorta rings): superior anti-angiogenesis activities relative to bestatin
- microvessel outgrowth from thoracic aorta ring (rat thoracic aorta rings): effectively inhibited the microvessel outgrowth in a dose-dependent manner

SMILES: O=C(CCCCCCC(=O)Nc1ccccc1)NO [SAHA]
- HDAC1, HDAC6 and HDAC8 protein levels (western blot) (RPMI-8226 cells; 5 μM): effectively lead to the downregulation of HDAC1, HDAC6 and HDAC8
- acetyl-histone H3 and acetyl-α-tubulin levels (intracellular target engagement) (RPMI-8226 cells): potently inhibited the intracellular HDAC
- HDAC1 and HDAC6 protein levels (western blot) (RPMI-8226 cells; indicated concentrations): without influencing the levels of HDAC1 and HDAC6
- HDAC decreasing effect under cotreatment with proteasome inhibitor bortezomib (RPMI-8226 cells): could not reverse
